According to US20180028480A1, “METHODS OF REDUCING OR PREVENTING OXIDATIVE MODIFICATION OF MEMBRANE POLYUNSATURATED FATTY ACIDS” (Amarin Pharmaceuticals Ireland Limited, priority 2015, published 2018):

Assay: Fluorescence anisotropy, DPH apparent rotational correlation time (Example 8)
Settings: POPC, 0 or 50 mol % cholesterol; increasing omega-3 fatty acid concentrations (FIGS. 16A-16B)
From the text: FIGS. 16A-16B show the dose-dependent effects of EPA and DHA on the ARCT measured for DPH in POPC membranes prepared at either 0 or 50 mol % cholesterol. †p=0.0331 versus cognate DHA treatment (5 mol % omega-3 fatty acids (O3FA), no cholesterol); ^§p=0.0016 versus cognate DHA treatment (5 mol % O3FA, 50 mol % cholesterol); ^‡p=0.0032 versus cognate DHA treatment (10 mol % O3FA, 50 mol % cholesterol) (unpaired, two-tailed Student's t-test). Values are mean±S.D. (N=3).
Fluorescence anisotropy experiments were conducted using large unilamellar vesicles (LUVs) of 100 nm diameter of either POPC (or POPC/cholesterol) containing increasing concentrations of EPA or DHA and 1 mol % DPH fluorescent. Briefly, 640 nmol of total lipid (phospholipid and sterol) and 6.4 nmol of fluorescent probe was mixed well and dried under a stream of nitrogen while being warmed gently at 35° C. […]
In order to ensure that the anisotropy values measured for DPH are not influenced by lifetime-induced artifacts, the apparent (average) rotational correlation times (ARCT) were calculated using Perrin's equation: […]
where r0 is the limiting anisotropy of DPH, r is the steady state anisotropy, and is the mean fluorescence lifetime.

SMILES: CC/C=C\C/C=C\C/C=C\C/C=C\C/C=C\CCCC(=O)O [EPA, cis-5,8,11,14,17-Eicosapentaenoic acid]
- DPH apparent rotational correlation time / membrane fluidity: did not alter membrane fluidity
